# Assay results as given in patent US7868181B2, “Compounds” (AstraZeneca AB, priority 2007, dated 2011).
# How the values were obtained:
# [1] = molecular target: T1, aldose reductase (Rattus norvegicus, UniProt P07943); test: comparative aldose reductase activity determination (MDS Pharma Services); format: biochemical; conditions: carried out by MDS Pharma Services
# T1 construct: MDS Pharma Services - Taiwan Ltd (contract laboratory that ran the assay)
# Method: A comparative aldose reductase activity determination was carried out by the company MDS Pharma Services—Taiwan Ltd; the results of that study is set forth in Table 1 below.
# [2] = molecular target: T2, human VR1 (Homo sapiens, UniProt Q8NER1); test: hVR1 FLIPR screening assay, IC50 determination (capsaicin); format: cell-based; conditions: CHO cells stably expressing hVR1; agonist capsaicin
# T2 construct: expressed in transfected cells; host or cells: CHO cells
# T2 sequence (Q8NER1 whole entry): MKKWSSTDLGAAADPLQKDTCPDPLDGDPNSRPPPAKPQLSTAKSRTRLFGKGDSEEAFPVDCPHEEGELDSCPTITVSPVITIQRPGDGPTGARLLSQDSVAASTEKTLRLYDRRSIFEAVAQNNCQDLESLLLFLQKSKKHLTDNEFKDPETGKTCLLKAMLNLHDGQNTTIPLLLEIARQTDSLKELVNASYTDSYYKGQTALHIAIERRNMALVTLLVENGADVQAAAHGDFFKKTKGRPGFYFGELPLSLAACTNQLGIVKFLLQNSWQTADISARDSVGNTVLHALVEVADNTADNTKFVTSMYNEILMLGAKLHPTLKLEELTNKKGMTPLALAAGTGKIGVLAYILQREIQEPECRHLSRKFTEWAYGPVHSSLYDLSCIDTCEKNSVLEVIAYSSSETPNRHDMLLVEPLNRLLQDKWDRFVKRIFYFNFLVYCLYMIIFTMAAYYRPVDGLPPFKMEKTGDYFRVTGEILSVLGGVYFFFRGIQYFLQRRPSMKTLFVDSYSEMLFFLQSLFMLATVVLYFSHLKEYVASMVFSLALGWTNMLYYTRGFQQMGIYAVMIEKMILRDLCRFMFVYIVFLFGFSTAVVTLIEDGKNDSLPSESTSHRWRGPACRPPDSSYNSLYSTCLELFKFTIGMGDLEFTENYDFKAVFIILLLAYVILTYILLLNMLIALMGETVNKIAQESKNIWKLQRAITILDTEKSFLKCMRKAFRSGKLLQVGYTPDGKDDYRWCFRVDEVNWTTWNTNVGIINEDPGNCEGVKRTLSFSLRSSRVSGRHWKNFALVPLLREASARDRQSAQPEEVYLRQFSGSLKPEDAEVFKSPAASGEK
# Method: hVR1FLIPR (Fluorometric Image Plate Reader) Screening Assay
# Transfected CHO cells, stably expressing hVR1 (15,000 cells/well) are seeded in 50 μL media in a black clear bottom 384 plate (Greiner) and grown in a humidified incubator (37° C., 2% CO2), 24-30 hours prior to experiment.
# Subsequently, the media is removed from the cell plate by inversion and 2 μM Fluo-4 is added using a multidrop (Labsystems). Following the 40 min dye incubation in the dark at 37° C. and 2% CO2, the extracellular dye present is washed away using an EMBLA (Scatron), leaving the cells in 40 μL of assay buffer (1×HBSS, 10 mM D-Glucose, 1 mM CaCl2, 10 mM HEPES, 10×7.5% NaHCO3 and 2.5 mM Probenecid).
# FLIPR Assay—IC50 Determination Protocol
# For IC50 determinations the fluorescence is read using FLIPR filter 1 (em […]). A cellular baseline recording is taken for 30 seconds, followed by a 20 μL addition of 10, titrated half-log concentrations of the test compound, yielding cellular concentration ranging from 3 μM to 0.1 nM. Data is collected every 2 seconds for a further 5 min prior to the addition of a VR1 agonist solution: either 50 nM solution of capsaicin or MES (2-[N-morpholino] ethanesulfonic acid) buffer (pH 5.2), by the FLIPR pipettor. The FLIPR continues to collect data for a further 4 min. Compounds having antagonistic properties against the hVR1 will inhibit the increase in intracellular calcium in response to the capsaicin addition. This consequently leading to a reduction in fluorescence signal and providing a reduced fluorescence reading, compared with no compound, buffer controls. Data is exported by the FLIPR program as a sum of fluorescence calculated under the curve upon the addition of capsaicin. Maximum inhibition, Hill slope and IC50 data for each compound are generated.
# [3] = tested on: carrageenan-induced heat hyperalgesia; test: Carrageenan model, heat plantar test (paw withdrawal latency); format: in vivo; conditions: rat, oral
# [4] = tested on: FCA-induced heat hyperalgesia; test: Freund's Complete Adjuvant (FCA) model, heat plantar test (paw withdrawal latency); format: in vivo; conditions: rat, oral
# [5] = tested at Tmax, reversal of heat hyperalgesia
IC50 [1],IC50 [2],Compound,further results
25 nM,10000 nM,"O=C1NC(=O)[C@]2(N1)C(=O)N(C/C=C/c1ccc(Cl)c(Cl)c1)c1ccccc12 (single isomer, unassigned) [Enantiomer 1A]",–
3300 nM,241 nM,"O=C1NC(=O)[C@@]2(N1)C(=O)N(C/C=C/c1ccc(Cl)c(C(F)(F)F)c1)c1ccccc12 (single isomer, unassigned) [Enantiomer 2B]",–
33 nM,3850 nM,"O=C1NC(=O)[C@]2(N1)C(=O)N(C/C=C/c1ccc(Cl)c(C(F)(F)F)c1)c1ccccc12 (single isomer, unassigned) [Enantiomer 2A]",–
72.3 nM,15500 nM,"O=C1NC(=O)[C@]2(N1)C(=O)N(CC#Cc1ccc(Cl)c(Cl)c1)c1ccccc12 (single isomer, unassigned) [Enantiomer 3A]",–
758 nM,43 nM,"O=C1NC(=O)[C@@]2(N1)C(=O)N(C/C=C/c1ccc(Cl)c(Cl)c1)c1ccccc12 (single isomer, unassigned) [Enantiomer 1B]","Extrapolated Emax ([3]; non-linear regression): 88%; EC80 ([3]; reversal of heat hyperalgesia): 10.7 µM; Emax observed ([3]; reversal of heat hyperalgesia): 76%; EC50 [3, 5]: 4.8 µM; ED50 [3, 5]: 10.6 µmol/kg; Extrapolated Emax ([4]; non-linear regression): >100%; EC80 ([4]; reversal of heat hyperalgesia): 100 µM; Emax observed ([4]; reversal of heat hyperalgesia): 100%; EC50 [4, 5]: 24 µM; ED50 [4, 5]: 52.8 µmol/kg"
983 nM,881 nM,"O=C1NC(=O)[C@@]2(N1)C(=O)N(CC#Cc1ccc(Cl)c(Cl)c1)c1ccccc12 (single isomer, unassigned) [Enantiomer 3B]",–
